54 molecules from patent publication US20110082114A1, “Methods of Treating Aneurysmal Dilatation, Blood Vessel Wall Weakness and Specifically Abdominal Aortic and Thoracic Aneurysm Using Matrix Metalloprotease-2 Inhibitors” (SYMPHONY EVOLUTION, INC., priority 2009, published 2011) can be followed below.

This test addresses T1, mADAM-10 or hADAM-10 (UniProt O14672).
T1 sequence (O14672 1-748): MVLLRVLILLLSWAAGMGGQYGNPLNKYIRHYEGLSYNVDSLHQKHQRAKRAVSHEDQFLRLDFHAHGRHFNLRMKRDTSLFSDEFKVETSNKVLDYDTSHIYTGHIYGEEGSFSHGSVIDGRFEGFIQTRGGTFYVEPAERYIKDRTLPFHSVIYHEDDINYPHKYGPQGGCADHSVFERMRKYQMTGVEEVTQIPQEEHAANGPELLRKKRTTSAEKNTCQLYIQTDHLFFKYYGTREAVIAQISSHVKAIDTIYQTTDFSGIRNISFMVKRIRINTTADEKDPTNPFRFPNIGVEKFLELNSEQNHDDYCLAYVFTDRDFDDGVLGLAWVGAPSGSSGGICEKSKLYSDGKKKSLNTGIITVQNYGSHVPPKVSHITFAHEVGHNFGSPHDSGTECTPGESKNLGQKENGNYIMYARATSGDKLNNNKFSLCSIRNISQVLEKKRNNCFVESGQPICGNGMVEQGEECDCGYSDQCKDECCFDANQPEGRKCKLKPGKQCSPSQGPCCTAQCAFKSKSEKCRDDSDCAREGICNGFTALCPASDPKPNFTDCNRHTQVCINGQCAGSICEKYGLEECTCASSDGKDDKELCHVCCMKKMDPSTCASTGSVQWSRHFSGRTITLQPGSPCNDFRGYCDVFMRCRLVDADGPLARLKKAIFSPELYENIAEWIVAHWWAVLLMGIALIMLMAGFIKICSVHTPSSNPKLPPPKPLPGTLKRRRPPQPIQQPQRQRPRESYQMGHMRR
Briefly: ADAM-10 enzyme assay (fluorogenic peptide cleavage).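 Note: fluorescence from cleavage of a quenched 10-residue DABCYL/EDANS peptide by 5 nM enzyme in HEPES pH 8.0 buffer, 16 hr at room temperature, compounds serially diluted 100 µM to 0.5 nM.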 The format is biochemical.

Procedure: mADAM-10 or hADAM-10 activity was measured as the ability to cleave a 10-residue peptide (DABCYL-Leu-Leu-Ala-Gln-Lys-*-Leu-Arg-Ser-Ser-Arg-EDANS). […] Enzyme was diluted to a final active concentration of 5 nM in Buffer A (50 mM HEPES 8.0, 100 mM NaCl, 1 mM CaCl2 and 0.01% NP-40). Serial dilutions for compounds were performed ranging from 100 μM to 0.5 nM using a Beckman Biomek 2000 in polypropylene plates (Greiner). […] This reaction was incubated for 16 hr at RT and fluorescence was read using identical conditions.

For the molecule `COCCOC(=O)N1CCN(S(=O)(=O)c2ccc(Oc3ccc(F)cc3)cc2)[C@@H](C(=O)NO)C1` [Entry 1], the IC50 is < 50 nM.

As for `O=C(NO)[C@H]1CN(C(=O)N2CCOCC2)CCN1S(=O)(=O)c1ccc(Oc2ccc(F)cc2)cc1` [Entry 2], the IC50 is < 50 nM.

As for `COCCOC(=O)N1CCN(S(=O)(=O)c2ccc(Oc3ccc(F)cc3)c(F)c2)[C@@H](C(=O)NO)C1` [Entry 3], the IC50 is < 50 nM.

For the molecule `COCCOC(=O)N1CCN(S(=O)(=O)c2ccc(Oc3ccc(Cl)cc3)c(F)c2)[C@@H](C(=O)NO)C1` [Entry 4], the IC50 is < 50 nM.

Take `COCCOC(=O)N1CCN(S(=O)(=O)c2ccc(Oc3ccc(C#N)cc3)c(F)c2)[C@@H](C(=O)NO)C1` [Entry 5]: the IC50 was < 50 nM.

On to `O=C(NO)[C@H]1CN(C(=O)N2CCOCC2)CCN1S(=O)(=O)c1ccc(Oc2ccc(Cl)cc2)c(F)c1` [Entry 6], for which the IC50 is < 50 nM.

As to `N#Cc1ccc(Oc2ccc(S(=O)(=O)N3CCN(C(=O)N4CCOCC4)C[C@@H]3C(=O)NO)cc2F)cc1` [Entry 7], the IC50 was < 50 nM.

In the case of `O=C(NO)[C@H]1CN(C(=O)N2CCOCC2)CCN1S(=O)(=O)c1ccc(Oc2ccc(F)cc2)c(F)c1` [Entry 8], the IC50 is < 50 nM.

`CC(C)(C)OC(=O)N1CCN(S(=O)(=O)c2cc(F)c(Oc3ccc(F)cc3)c(F)c2)[C@@H](C(=O)NO)C1` [Entry 9]: the IC50 is < 50 nM.

As for `COCCOC(=O)N1CCN(S(=O)(=O)c2cc(F)c(Oc3ccc(F)cc3)c(F)c2)[C@@H](C(=O)NO)C1` [Entry 10], the IC50 was < 50 nM.

Consider `O=C(NO)[C@H]1CNCCN1S(=O)(=O)c1cc(F)c(Oc2ccc(F)cc2)c(F)c1` [Entry 11], for which the IC50 was in the range of 50 to 1000 nM.

Consider `O=C(NO)[C@H]1CN(C(=O)N2CCOCC2)CCN1S(=O)(=O)c1cc(F)c(Oc2ccc(F)cc2)c(F)c1` [Entry 12], for which the IC50 was < 50 nM.

For the molecule `CCOC(=O)N1CCN(S(=O)(=O)c2cc(F)c(Oc3ccc(F)cc3)c(F)c2)[C@@H](C(=O)NO)C1` [Entry 13], the IC50 was < 50 nM.

In turn, `CN1CCN(S(=O)(=O)c2cc(F)c(Oc3ccc(F)cc3)c(F)c2)[C@@H](C(=O)NO)C1` [Entry 14] registered an IC50 of 50 to 1000 nM.

In the case of `CN1CCN(C(=O)N2CCN(S(=O)(=O)c3cc(F)c(Oc4ccc(Cl)cc4)c(F)c3)[C@@H](C(=O)NO)C2)CC1` [Entry 16], the IC50 was < 50 nM.

As to `O=C(NO)[C@H]1CN(C(=O)NCCN2CCCC2)CCN1S(=O)(=O)c1cc(F)c(Oc2ccc(Cl)cc2)c(F)c1` [Entry 17], the IC50 is < 50 nM.

Consider `O=C(NO)[C@H]1CN(C(=O)OCCN2CCCC2)CCN1S(=O)(=O)c1cc(F)c(Oc2ccc(Cl)cc2)c(F)c1` [Entry 18], for which the IC50 is < 50 nM.

With `CNC(=O)CN1CCN(S(=O)(=O)c2cc(F)c(Oc3ccc(Cl)cc3)c(F)c2)[C@@H](C(=O)NO)C1` [Entry 19], the IC50 was < 50 nM.

For `CN(C)C(=O)CN1CCN(S(=O)(=O)c2cc(F)c(Oc3ccc(Cl)cc3)c(F)c2)[C@@H](C(=O)NO)C1` [Entry 20], the IC50 was < 50 nM.

Regarding `O=C(NO)[C@H]1CN(CC(=O)N2CCCC2)CCN1S(=O)(=O)c1cc(F)c(Oc2ccc(Cl)cc2)c(F)c1` [Entry 21], the IC50 is < 50 nM.

In the case of `CN1CCC(OC(=O)N2CCN(S(=O)(=O)c3cc(F)c(Oc4ccc(Cl)cc4)c(F)c3)[C@@H](C(=O)NO)C2)CC1` [Entry 22], the IC50 is < 50 nM.

As for `CCOC(=O)N1CCN(CC(=O)N2CCN(S(=O)(=O)c3cc(F)c(Oc4ccc(Cl)cc4)c(F)c3)[C@@H](C(=O)NO)C2)CC1` [Entry 23], the IC50 is < 50 nM.

On to `CN1CCN(CC(=O)N2CCN(S(=O)(=O)c3cc(F)c(Oc4ccc(Cl)cc4)c(F)c3)[C@@H](C(=O)NO)C2)CC1` [Entry 24], for which the IC50 was < 50 nM.

For `O=C(NO)[C@H]1CN(C(=O)CN2CCOCC2)CCN1S(=O)(=O)c1cc(F)c(Oc2ccc(Cl)cc2)c(F)c1` [Entry 25], the IC50 was < 50 nM.

Turning to `O=C(NO)[C@H]1CN(C(=O)CN2CCCCC2)CCN1S(=O)(=O)c1cc(F)c(Oc2ccc(Cl)cc2)c(F)c1` [Entry 26], the IC50 was < 50 nM.

As to `O=C(NO)[C@H]1CN(C(=O)OCCN2CCCCC2)CCN1S(=O)(=O)c1cc(F)c(Oc2ccc(Cl)cc2)c(F)c1` [Entry 27], the IC50 was < 50 nM.

On to `CS(=O)(=O)N1CCN(S(=O)(=O)c2cc(F)c(Oc3ccc(Cl)cc3)c(F)c2)[C@@H](C(=O)NO)C1` [Entry 28], for which the IC50 was < 50 nM.

Turning to `COCCN1CCN(S(=O)(=O)c2cc(F)c(Oc3ccc(Cl)cc3)c(F)c2)[C@@H](C(=O)NO)C1` [Entry 29], the IC50 was < 50 nM.

On to `O=C(NO)[C@H]1CN(C(=O)N2CCOCC2)CCN1S(=O)(=O)c1cc(F)c(Oc2ccc(Cl)cc2)c(F)c1` [Entry 30], for which the IC50 was < 50 nM.

Take `O=C(NO)[C@H]1CN(C(=O)C(=O)N2CCOCC2)CCN1S(=O)(=O)c1cc(F)c(Oc2ccc(Cl)cc2)c(F)c1` [Entry 31]: the IC50 was < 50 nM.

`O=C(NO)[C@H]1CN(C(=O)OCc2ccccc2)CCN1S(=O)(=O)c1cc(F)c(Oc2ccc(Cl)cc2)c(F)c1` [Entry 32]: the IC50 was < 50 nM.

For `O=C(CCl)NC(=O)N1CCN(S(=O)(=O)c2cc(F)c(Oc3ccc(Cl)cc3)c(F)c2)[C@@H](C(=O)NO)C1` [Entry 33], the IC50 was < 50 nM.

As to `O=C(NO)[C@H]1CN(S(=O)(=O)Cc2ccncc2)CCN1S(=O)(=O)c1cc(F)c(Oc2ccc(Cl)cc2)c(F)c1` [Entry 34], the IC50 is < 50 nM.

Consider `O=C(NO)[C@H]1CN(C(=O)C(=O)N2CCCCC2)CCN1S(=O)(=O)c1cc(F)c(Oc2ccc(Cl)cc2)c(F)c1` [Entry 35], for which the IC50 is < 50 nM.

In the case of `CN(C)S(=O)(=O)N1CCN(S(=O)(=O)c2cc(F)c(Oc3ccc(Cl)cc3)c(F)c2)[C@@H](C(=O)NO)C1` [Entry 36], the IC50 is < 50 nM.

In the case of `O=C(NO)[C@H]1CN(S(=O)(=O)NC(=O)N2CCCCC2)CCN1S(=O)(=O)c1cc(F)c(Oc2ccc(Cl)cc2)c(F)c1` [Entry 37], the IC50 was < 50 nM.

As for `O=C(NO)[C@H]1CN(S(=O)(=O)NC(=O)N2CCOCC2)CCN1S(=O)(=O)c1cc(F)c(Oc2ccc(Cl)cc2)c(F)c1` [Entry 38], the IC50 was < 50 nM.

As to `CN1CCN(C(=O)NS(=O)(=O)N2CCN(S(=O)(=O)c3cc(F)c(Oc4ccc(Cl)cc4)c(F)c3)[C@@H](C(=O)NO)C2)CC1` [Entry 39], the IC50 is < 50 nM.

For `COCCOC(=O)N1CCN(S(=O)(=O)c2cc(F)c(Oc3ccccc3)c(F)c2)[C@@H](C(=O)NO)C1` [Entry 40], the IC50 is < 50 nM.

Turning to `O=C(NO)[C@H]1CN(S(=O)(=O)c2cc(F)c(O)c(F)c2)CCN1S(=O)(=O)c1cc(F)c(Oc2ccc(Cl)cc2)c(F)c1` [Entry 41], the half-maximal inhibitory concentration (IC50) was < 50 nM.

As to `O=C(NO)[C@H]1CN(C(=O)c2ccncc2)CCN1S(=O)(=O)c1cc(F)c(Oc2ccc(Cl)cc2)c(F)c1` [Entry 42], the IC50 was < 50 nM.

On to `CCCCCCC(=O)N1CCN(S(=O)(=O)c2cc(F)c(Oc3ccc(Cl)cc3)c(F)c2)[C@@H](C(=O)NO)C1` [Entry 43], for which the IC50 was < 50 nM.

Regarding `CCCC(CCC)C(=O)N1CCN(S(=O)(=O)c2cc(F)c(Oc3ccc(Cl)cc3)c(F)c2)[C@@H](C(=O)NO)C1` [Entry 44], the IC50 is < 50 nM.

In the case of `O=C(NO)[C@H]1CN(S(=O)(=O)c2cccnc2O)CCN1S(=O)(=O)c1cc(F)c(Oc2ccc(Cl)cc2)c(F)c1` [Entry 45], the IC50 was < 50 nM.

Take `O=C(CN1CCOCC1)NC(=O)N1CCN(S(=O)(=O)c2cc(F)c(Oc3ccc(Cl)cc3)c(F)c2)[C@@H](C(=O)NO)C1` [Entry 46]: the IC50 is < 50 nM.

For the molecule `O=C(NO)[C@H]1CN(C(=O)Cc2cccnc2)CCN1S(=O)(=O)c1cc(F)c(Oc2ccc(Cl)cc2)c(F)c1` [Entry 47], the IC50 is < 50 nM.

Regarding `O=C(NO)[C@H]1CN(S(=O)(=O)c2cccc3cnccc23)CCN1S(=O)(=O)c1cc(F)c(Oc2ccc(Cl)cc2)c(F)c1` [Entry 48], the IC50 was < 50 nM.

Molecule `CN(C)c1ccc2c(S(=O)(=O)N3CCN(S(=O)(=O)c4cc(F)c(Oc5ccc(Cl)cc5)c(F)c4)[C@@H](C(=O)NO)C3)cccc2c1` [Entry 49] had an IC50 of 1000 to 20000 nM.

Turning to `CN(C)c1ccc2ccc(S(=O)(=O)N3CCN(S(=O)(=O)c4cc(F)c(Oc5ccc(Cl)cc5)c(F)c4)[C@@H](C(=O)NO)C3)cc2c1` [Entry 50], the IC50 is 1000 to 20000 nM.

For `O=C(NO)[C@H]1CN(C(=O)c2ccc(-c3ccccc3)cc2)CCN1S(=O)(=O)c1cc(F)c(Oc2ccc(Cl)cc2)c(F)c1` [Entry 51], the IC50 was in the range of 50 to 1000 nM.

In the case of `O=C(NO)[C@H]1CN(C(=O)Cc2ccncc2)CCN1S(=O)(=O)c1cc(F)c(Oc2ccc(Cl)cc2)c(F)c1` [Entry 52], the IC50 was < 50 nM.

As to `O=C(NO)[C@H]1CN(S(=O)(=O)CCN2CCCCC2)CCN1S(=O)(=O)c1cc(F)c(Oc2ccc(Cl)cc2)c(F)c1` [Entry 53], the IC50 was < 50 nM.

For the molecule `CN(C)CCS(=O)(=O)N1CCN(S(=O)(=O)c2cc(F)c(Oc3ccc(Cl)cc3)c(F)c2)[C@@H](C(=O)NO)C1` [Entry 54], the IC50 is < 50 nM.

`CN1CCN(CCS(=O)(=O)N2CCN(S(=O)(=O)c3cc(F)c(Oc4ccc(Cl)cc4)c(F)c3)[C@@H](C(=O)NO)C2)CC1` [Entry 55]: the IC50 was < 50 nM.
